The values that follow come from ChEMBL document CHEMBL5705899 (Biochem J, 2014).

The target in assay [1] is Serine/threonine-protein kinase B-raf (Homo sapiens) (UniProt P15056). Briefly: Inhibition of human BRAF at 1 uM using MEK1-K97M as substrate in presence of 33P-ATP by ProQinase assay.
In assay [2] the target is T1, 3-phosphoinositide-dependent protein kinase 1 (Homo sapiens) (UniProt O15530).
T1 sequence (whole entry): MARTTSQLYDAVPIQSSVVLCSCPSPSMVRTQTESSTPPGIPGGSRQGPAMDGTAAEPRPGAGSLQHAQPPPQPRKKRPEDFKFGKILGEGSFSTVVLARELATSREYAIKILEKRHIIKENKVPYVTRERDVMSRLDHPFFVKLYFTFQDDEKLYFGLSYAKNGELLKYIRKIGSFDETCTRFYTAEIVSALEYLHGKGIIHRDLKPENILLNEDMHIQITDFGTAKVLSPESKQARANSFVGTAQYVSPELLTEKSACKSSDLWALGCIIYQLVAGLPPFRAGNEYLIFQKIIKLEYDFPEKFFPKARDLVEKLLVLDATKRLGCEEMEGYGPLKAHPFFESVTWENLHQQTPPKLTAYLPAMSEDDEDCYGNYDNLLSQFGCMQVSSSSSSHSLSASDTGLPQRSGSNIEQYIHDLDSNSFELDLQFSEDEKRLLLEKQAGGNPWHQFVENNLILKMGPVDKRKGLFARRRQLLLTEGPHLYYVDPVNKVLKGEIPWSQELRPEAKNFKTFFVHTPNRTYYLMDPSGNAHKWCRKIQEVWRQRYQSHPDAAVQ
The assay is described as follows: Inhibition of recombinant human His6-tagged PDK1 (52 to 556 residues) expressed in baculovirus infected Sf21 cells assessed as remaining activity at 1 uM using PDKtide as substrate incubated for 30 mins in presence of [gamma-33P]ATP by filter binding method relative to control.

The target in assay [3] is Tyrosine-protein kinase Lck (Homo sapiens) (UniProt P06239). Briefly: Inhibition of recombinant human N-terminal His6-tagged LCK (2 to 509 residues) expressed in baculovirus infected Sf21 cells assessed as remaining activity at 1 uM using KVEKIGEGTYGVVYK as substrate incubated for 30 mins in presence of [gamma-33P]ATP by filter binding method relative to control.
For assay [4], the target named is Tyrosine-protein kinase Fgr (Homo sapiens) (UniProt P09769). Briefly: Inhibition of human FGR at 1 uM using polyEY as substrate in presence of 33P-ATP by ProQinase assay.
Assay [5] deals with Serine/threonine-protein kinase PLK1 (Homo sapiens) (UniProt P53350). The assay is described as follows: Inhibition of human PLK1 at 1 uM using RBER-CHKtide as substrate in presence of 33P-ATP by ProQinase assay.
Sequence of Serine/threonine-protein kinase PLK1 (Homo sapiens) (P53350 whole entry, the tested form may be a part): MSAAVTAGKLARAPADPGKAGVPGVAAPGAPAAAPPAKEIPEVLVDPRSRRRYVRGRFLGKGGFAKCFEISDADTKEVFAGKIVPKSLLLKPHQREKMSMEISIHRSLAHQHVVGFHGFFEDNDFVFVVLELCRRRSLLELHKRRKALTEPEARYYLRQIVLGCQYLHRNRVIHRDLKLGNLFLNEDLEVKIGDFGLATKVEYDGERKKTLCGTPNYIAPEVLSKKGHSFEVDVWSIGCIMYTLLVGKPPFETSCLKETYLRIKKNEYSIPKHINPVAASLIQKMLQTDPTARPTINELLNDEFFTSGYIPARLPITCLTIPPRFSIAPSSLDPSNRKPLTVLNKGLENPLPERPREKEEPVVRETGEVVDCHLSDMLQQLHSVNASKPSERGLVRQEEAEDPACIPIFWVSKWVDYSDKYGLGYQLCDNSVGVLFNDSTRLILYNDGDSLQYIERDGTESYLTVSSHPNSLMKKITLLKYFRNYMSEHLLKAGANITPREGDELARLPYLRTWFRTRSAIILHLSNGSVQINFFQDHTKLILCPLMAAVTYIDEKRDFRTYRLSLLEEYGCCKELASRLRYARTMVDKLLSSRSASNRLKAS
Assay [6] concerns the target Tau-tubulin kinase 1 (Homo sapiens) (UniProt Q5TCY1). The assay is described as follows: Inhibition of recombinant human N-terminal GST-tagged TTBK1 (1 to 1321 residues) expressed in Escherichia coli assessed as remaining activity at 1 uM using RRKDLHDDEEDEAMSITA as substrate incubated for 30 mins in presence of [gamma-33P]ATP by filter binding method relative to control.

The target in assay [7] is Serine/threonine-protein kinase PAK 6 (Homo sapiens) (UniProt Q9NQU5). Briefly: Inhibition of recombinant human N-terminal GST-tagged PAK6 (2 to 681 residues) expressed in Escherichia coli assessed as remaining activity at 1 uM using RRRLSFAEPG as substrate incubated for 30 mins in presence of [gamma-33P]ATP by filter binding method relative to control.
Sequence of Serine/threonine-protein kinase PAK 6 (Homo sapiens) (Q9NQU5 whole entry, looked up, the tested form may be a part): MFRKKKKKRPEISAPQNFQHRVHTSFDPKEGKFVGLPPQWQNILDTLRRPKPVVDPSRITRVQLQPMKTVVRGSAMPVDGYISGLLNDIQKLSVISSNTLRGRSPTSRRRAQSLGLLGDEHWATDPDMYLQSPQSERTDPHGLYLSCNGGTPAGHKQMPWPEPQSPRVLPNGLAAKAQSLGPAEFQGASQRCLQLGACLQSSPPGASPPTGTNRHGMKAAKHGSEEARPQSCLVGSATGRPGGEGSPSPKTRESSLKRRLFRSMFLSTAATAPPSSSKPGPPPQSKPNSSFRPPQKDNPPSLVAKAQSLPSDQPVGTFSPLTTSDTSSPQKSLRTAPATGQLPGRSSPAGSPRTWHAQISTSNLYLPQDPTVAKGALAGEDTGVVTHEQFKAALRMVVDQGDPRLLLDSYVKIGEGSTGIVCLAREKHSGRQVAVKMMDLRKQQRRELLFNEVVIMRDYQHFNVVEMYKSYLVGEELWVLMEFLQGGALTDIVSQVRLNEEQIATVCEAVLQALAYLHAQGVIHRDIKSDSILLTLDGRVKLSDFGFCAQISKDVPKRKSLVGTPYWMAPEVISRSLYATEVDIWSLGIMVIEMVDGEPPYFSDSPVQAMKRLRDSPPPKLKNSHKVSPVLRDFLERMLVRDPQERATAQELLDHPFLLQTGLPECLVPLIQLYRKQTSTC
Assay [8] has as its target Death-associated protein kinase 2 (Homo sapiens) (UniProt Q9UIK4). Briefly: Inhibition of human DAPK2 at 1 uM using RB-S6P as substrate in presence of 33P-ATP by ProQinase assay.
The target in assay [9] is MAP kinase-interacting serine/threonine-protein kinase 1 (Homo sapiens) (UniProt Q9BUB5). The assay is described as follows: Inhibition of recombinant human N-terminal GST-tagged C-terminal His6-tagged MNK1 (2 to 424 residues) expressed in Escherichia coli assessed as remaining activity at 1 uM using eIF4E as substrate incubated for 30 mins in presence of [gamma-33P]ATP by filter binding method relative to control.
Sequence of MAP kinase-interacting serine/threonine-protein kinase 1 (Homo sapiens) (Q9BUB5 whole entry, looked up, the tested form may be a part): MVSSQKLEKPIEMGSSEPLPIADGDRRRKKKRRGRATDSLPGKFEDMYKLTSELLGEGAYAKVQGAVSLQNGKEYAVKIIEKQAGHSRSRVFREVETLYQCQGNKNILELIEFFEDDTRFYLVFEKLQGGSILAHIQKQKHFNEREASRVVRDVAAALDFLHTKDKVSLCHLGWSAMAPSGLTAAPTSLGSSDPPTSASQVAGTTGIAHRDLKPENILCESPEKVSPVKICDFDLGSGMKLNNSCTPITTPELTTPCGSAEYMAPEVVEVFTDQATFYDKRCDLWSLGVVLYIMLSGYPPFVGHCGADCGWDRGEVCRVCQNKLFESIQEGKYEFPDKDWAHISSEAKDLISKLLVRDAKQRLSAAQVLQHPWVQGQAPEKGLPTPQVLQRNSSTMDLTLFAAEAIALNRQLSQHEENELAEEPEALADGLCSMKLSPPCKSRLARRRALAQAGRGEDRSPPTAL

For assay [10], the target named is Serine/threonine-protein kinase SIK2 (Homo sapiens) (UniProt Q9H0K1). The assay is described as follows: Inhibition of human SNF1LK2 at 1 uM using RBER-CHKtide as substrate in presence of 33P-ATP by ProQinase assay.
Assay [11] concerns the target Dual specificity mitogen-activated protein kinase kinase 6 (Homo sapiens) (UniProt P52564). Briefly: Inhibition of recombinant human N-terminal MBP-tagged MKK6 (2 to 334 residues) expressed in Escherichia coli assessed as remaining activity at 1 uM using SAPK2a as substrate incubated for 30 mins in presence of [gamma-33P]ATP by filter binding method relative to control.

Assay [12] deals with Proto-oncogene tyrosine-protein kinase receptor Ret (Homo sapiens) (UniProt P07949). Briefly: Inhibition of human RET at 1 uM using polyEY as substrate in presence of 33P-ATP by ProQinase assay.
The target in assay [13] is Sphingosine kinase 1 (Homo sapiens) (UniProt Q9NYA1). The assay is described as follows: Inhibition of recombinant human N-terminal His6-tagged SPHK1 (1 to 384 residues) expressed in baculovirus expression system at 1 uM using sphingosine as substrate incubated for 40 mins by ADP-Glo assay. A general note: ADP-Glo turns the ADP formed in a reaction into a luminescent signal.
Sequence of Sphingosine kinase 1 (Homo sapiens) (Q9NYA1 whole entry, the tested form may be a part): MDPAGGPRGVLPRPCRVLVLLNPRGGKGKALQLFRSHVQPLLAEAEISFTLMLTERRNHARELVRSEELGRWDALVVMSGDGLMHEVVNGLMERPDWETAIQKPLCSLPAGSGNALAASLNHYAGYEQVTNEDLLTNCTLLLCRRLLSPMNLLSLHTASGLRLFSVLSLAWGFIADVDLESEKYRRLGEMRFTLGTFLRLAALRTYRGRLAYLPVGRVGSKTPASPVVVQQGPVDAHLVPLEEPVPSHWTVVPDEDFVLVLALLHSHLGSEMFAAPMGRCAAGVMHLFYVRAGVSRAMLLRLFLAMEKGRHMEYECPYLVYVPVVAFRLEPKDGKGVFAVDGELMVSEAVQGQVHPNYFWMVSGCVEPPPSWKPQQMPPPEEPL

Assay [14] deals with Aurora kinase A (Homo sapiens) (UniProt O14965). Briefly: Inhibition of recombinant human N-terminal Hi6-tagged Aurora A (2 to 403 residues) expressed in Escherichia coli assessed as remaining activity at 1 uM using LRRLSLGLRRLSLGLRRLSLGLRRLSLG as substrate incubated for 30 mins in presence of [gamma-33P]ATP by filter binding method relative to control.
Sequence of Aurora kinase A (Homo sapiens) (O14965 whole entry, the tested form may be a part): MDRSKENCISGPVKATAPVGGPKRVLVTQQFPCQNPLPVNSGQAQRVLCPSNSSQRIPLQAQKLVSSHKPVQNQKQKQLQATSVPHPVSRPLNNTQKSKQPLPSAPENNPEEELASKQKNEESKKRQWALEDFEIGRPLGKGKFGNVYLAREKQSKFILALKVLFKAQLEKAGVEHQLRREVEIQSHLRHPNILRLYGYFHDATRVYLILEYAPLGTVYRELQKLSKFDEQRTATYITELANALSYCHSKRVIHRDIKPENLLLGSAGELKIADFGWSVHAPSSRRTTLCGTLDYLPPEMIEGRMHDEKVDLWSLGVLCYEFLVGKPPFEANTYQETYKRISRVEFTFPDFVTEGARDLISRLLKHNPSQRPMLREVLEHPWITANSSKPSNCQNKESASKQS
Assay [15] has as its target Dual specificity tyrosine-phosphorylation-regulated kinase 1B (Homo sapiens) (UniProt Q9Y463). Briefly: Inhibition of human DYRK1B at 1 uM using RBER-CHKtide as substrate in presence of 33P-ATP by ProQinase assay.
The target in assay [16] is Tyrosine-protein kinase JAK2 (Homo sapiens) (UniProt O60674). Briefly: Inhibition of human JAK2 at 1 uM using poly(Ala,Glu,Lys,Tyr) as substrate in presence of 33P-ATP by ProQinase assay.
The target of assay [17] is Protein kinase C beta type (Homo sapiens) (UniProt P05771). Briefly: Inhibition of human PKCbeta2 at 1 uM using 3xChocktide-PKC as substrate in presence of 33P-ATP by ProQinase assay.
In assay [18] the target is RAC-alpha serine/threonine-protein kinase (Homo sapiens) (UniProt P31749). The assay is described as follows: Inhibition of human AKT1 at 1 uM using RBER-GSK3 as substrate in presence of 33P-ATP by ProQinase assay.
The target in assay [19] is Phosphatidylinositol 4,5-bisphosphate 3-kinase catalytic subunit gamma isoform (Homo sapiens, UniProt P48736). The assay is described as follows: Inhibition of recombinant human N-terminal His6-tagged PI3Kgamma (2 to 1102 residues) expressed in baculovirus expression system at 1 uM using diC8 PIP2 as substrate incubated for 75 mins by ADP-Glo assay.

The source made the active and inactive calls. No cut-off for these calls is given here.

Sequence of Tau-tubulin kinase 1 (Homo sapiens) (Q5TCY1 whole entry, the tested form may be a part): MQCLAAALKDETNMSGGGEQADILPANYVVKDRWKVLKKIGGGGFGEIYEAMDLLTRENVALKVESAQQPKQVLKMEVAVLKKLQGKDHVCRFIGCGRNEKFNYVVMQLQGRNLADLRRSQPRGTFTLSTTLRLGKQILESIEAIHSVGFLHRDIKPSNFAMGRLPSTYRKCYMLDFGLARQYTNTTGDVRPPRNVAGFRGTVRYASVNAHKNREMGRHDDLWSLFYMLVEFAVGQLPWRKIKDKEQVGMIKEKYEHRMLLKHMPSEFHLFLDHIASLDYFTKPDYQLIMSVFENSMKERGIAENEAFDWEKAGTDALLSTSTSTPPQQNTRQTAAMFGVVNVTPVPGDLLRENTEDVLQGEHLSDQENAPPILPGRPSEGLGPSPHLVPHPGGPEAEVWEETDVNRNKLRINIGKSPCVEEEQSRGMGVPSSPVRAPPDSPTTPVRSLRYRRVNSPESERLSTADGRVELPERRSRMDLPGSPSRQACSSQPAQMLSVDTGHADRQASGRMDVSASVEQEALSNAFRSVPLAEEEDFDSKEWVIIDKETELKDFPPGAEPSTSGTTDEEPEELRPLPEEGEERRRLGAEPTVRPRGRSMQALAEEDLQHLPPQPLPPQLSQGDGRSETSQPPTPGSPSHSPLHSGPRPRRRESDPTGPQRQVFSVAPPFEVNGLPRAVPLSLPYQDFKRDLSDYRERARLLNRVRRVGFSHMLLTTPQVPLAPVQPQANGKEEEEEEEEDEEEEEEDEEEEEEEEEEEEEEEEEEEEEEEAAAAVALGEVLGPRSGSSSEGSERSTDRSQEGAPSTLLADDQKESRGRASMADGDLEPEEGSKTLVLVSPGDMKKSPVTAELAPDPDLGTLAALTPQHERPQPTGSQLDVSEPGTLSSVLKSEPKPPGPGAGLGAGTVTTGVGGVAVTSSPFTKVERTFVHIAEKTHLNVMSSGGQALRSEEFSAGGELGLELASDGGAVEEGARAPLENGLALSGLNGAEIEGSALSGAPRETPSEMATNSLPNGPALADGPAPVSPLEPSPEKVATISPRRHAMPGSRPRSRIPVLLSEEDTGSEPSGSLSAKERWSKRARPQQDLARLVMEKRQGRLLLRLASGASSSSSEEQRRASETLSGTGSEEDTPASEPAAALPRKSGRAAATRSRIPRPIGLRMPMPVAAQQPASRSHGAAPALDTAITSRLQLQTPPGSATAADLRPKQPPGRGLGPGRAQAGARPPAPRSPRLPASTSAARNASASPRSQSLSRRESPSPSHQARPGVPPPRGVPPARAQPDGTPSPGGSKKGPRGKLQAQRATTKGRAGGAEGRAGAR
Sequence of Serine/threonine-protein kinase B-raf (Homo sapiens) (P15056 whole entry): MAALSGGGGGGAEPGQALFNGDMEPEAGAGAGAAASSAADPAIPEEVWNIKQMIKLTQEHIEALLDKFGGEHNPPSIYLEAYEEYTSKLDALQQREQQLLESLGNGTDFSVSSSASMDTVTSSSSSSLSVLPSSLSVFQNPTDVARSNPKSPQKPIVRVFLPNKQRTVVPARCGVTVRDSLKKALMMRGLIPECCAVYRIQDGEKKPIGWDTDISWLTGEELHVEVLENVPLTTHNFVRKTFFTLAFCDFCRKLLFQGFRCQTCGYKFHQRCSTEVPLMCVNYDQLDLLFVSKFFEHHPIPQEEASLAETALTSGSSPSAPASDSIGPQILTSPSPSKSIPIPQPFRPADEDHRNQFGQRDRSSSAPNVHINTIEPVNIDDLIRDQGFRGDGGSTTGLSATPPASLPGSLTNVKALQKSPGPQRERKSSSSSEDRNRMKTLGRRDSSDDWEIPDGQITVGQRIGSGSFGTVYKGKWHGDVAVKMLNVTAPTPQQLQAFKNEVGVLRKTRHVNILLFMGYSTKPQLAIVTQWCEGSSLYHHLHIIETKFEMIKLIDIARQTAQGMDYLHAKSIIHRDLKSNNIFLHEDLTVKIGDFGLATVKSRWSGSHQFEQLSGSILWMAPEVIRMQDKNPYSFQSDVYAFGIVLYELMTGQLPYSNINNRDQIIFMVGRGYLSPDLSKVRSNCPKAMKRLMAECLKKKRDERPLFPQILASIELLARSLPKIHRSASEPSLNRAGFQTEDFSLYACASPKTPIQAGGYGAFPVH
Sequence of Death-associated protein kinase 2 (Homo sapiens) (Q9UIK4 whole entry, looked up, the tested form may be a part): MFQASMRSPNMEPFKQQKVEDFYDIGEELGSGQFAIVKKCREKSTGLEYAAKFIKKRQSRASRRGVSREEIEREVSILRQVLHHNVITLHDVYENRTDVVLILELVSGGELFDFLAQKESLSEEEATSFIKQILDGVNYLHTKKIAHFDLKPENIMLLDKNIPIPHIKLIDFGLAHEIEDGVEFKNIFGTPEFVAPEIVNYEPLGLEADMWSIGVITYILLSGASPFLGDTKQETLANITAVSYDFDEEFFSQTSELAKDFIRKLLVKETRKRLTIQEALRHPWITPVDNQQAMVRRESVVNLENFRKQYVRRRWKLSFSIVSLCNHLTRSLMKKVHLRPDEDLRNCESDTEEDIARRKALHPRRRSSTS

In the case of `CC(C)(O)CNc1ncc(-c2ccnc(Nc3ccnc(Cl)c3)n2)c(CC2CC2)n1`, the inhibition entry in [1], in assay [4], in assay [5], in assay [8], in assay [10] and in [12] was “inactive” in each case. Moreover, the inhibition entry in [13], in [15], in assay [16], in [17], in assay [18] and in assay [19] was “inactive” each time. Moreover, the Activity in assay [2] was 105%; in assay [3] it was 92%; in assay [6], 106%; in assay [7], 97%; in [9], 122%; in assay [11], 124%. The Activity in [14] is 110%.
